Measurements reported in publication PMC7728372, “Synthesis and Biological Evaluation of Amino Chalcone Derivatives as Antiproliferative Agents” (Molecules, 2020).

Legend:
MGC-803 cells [1] = experiment: MTT antiproliferative assay, MGC-803 cells; type: cell-based, human; conditions: exposure for 48 h
Experimental: (§1) Cell lines used were cultured in humidified incubator at 37 °C and 5% CO2. The RPMI-1640 medium was supplemented with 10% fetal bovine serum, penicillin (100 U/mL) and streptomycin (0.1 mg/mL).
(§2) Cell lines were seeded into […] and incubated for 24 h. Then cells were treated with different concentrations of compounds. And after another 48 h, MTT reagent (20 μL per well) was added and then incubated at 37 °C for 4 h. Formazan was then dissolved with DMSO. Absorbencies of formazan solution were measured at […]. The IC50 values of tested compounds were calculated by SPSS version 17.0.

HCT-116 cells = experiment: MTT antiproliferative assay, HCT-116 cells; type: cell-based, human
Experimental: as §1, §2

MCF-7 cells = experiment: MTT antiproliferative assay, MCF-7 cells; type: cell-based, human
Experimental: as §1, §2

GES-1 cells = experiment: MTT antiproliferative assay, non-cancer GES-1 cells; type: cell-based; conditions: for Fold Selectivity A: A = IC50 (GES-1)/IC50 (MGC-803); for IC50: Homo sapiens, GES1, non-cancer cell line, exposure for 48 h
Experimental: as §1, §2

MGC-803 cells [2] = experiment: Growth curves of MGC-803 cells; type: cell-based, human; conditions: MGC-803, after treatment for 72 h
Experimental: Since gastric cancer cell line MGC-803 cells was more sensitive to compound 13e, MGC-803 cells were selected to do further study. The cell viabilities of MGC-803 cells after the treatment with different concentrations of compound 13e for 48 h were presented in Figure 4A, as the concentration rise, cell viability decreased obviously. […] The trends of cell growth were curved with results of cell viabilities after compound 13e treatment. […] We also tested the inhibition activity of compound 13e on normal gastric epithelial cell GES-1.
Figure 4 (A–C) MGC-803 cells inhibition activity of compound 13e […]. (A) Cell viabilities of MGC-803 cells, MGC-803 cells were treated with indicated concentrations of compound 13e for 48 h; (B) Growth curves of MGC-803 cells after the treatment with indicated concentrations of compound 13e for different hours. (C) Cell viabilities of MGC-803 cells and GES-1 cells, cells were treated with indicated concentrations of compound 13e for 48 h. The results shown were representative of three independent experiments.

MGC-803 cells [3] = experiment: Cell colony formation assay; type: cell-based, human
Experimental: To check the effect of compound 13e on cell proliferation, cell colony formatting assay was performed. […] Beside the activity on cell apoptosis, compound 13e inhibited cell proliferation of MGC-803 cells as well.
(§3) In this work, some other assays including colony formation assay and cell apoptosis assay were referred to our previous work.
(§4) Figure 5 Compound 13e inhibited cell proliferation. (A,B) The colony formation of MGC-803 cells after the treatment with indicated concentrations of compound 13e for 7 days; (C) Cell proliferation related proteins in MGC-803 cells of compound 13e after the treatment with indicated concentrations of 13e for 24 h.

[4] = system: CyclinB1 and CDK1 in MGC-803 cells; experiment: Western blotting of cell proliferation related proteins; type: cell-based, human; conditions: MGC-803, western blot, 24 h
Experimental: (§5) Gastric cancer cells were seeded in dishes and treated with 13e or DMSO. After 48 h, MGC-803 cells were collected and then lysed. The denatured lysates of each groups were electrophoretic separated in SDS-PAGE. Proteins were then transferred onto PVDF membranes from gels. After blocking for 2 h, membranes were incubated with primary antibodies conjugation. Then, the membranes were washed and incubated with 2nd antibodies. At last, specific proteins were detected.
as §4

MGC-803 cells [5] = experiment: Annexin V/PI flow cytometry apoptosis assay; type: cell-based, human; conditions: MGC-803, 6 μmol/L, 48 h; control less than 10%
Experimental: as §3
(§6) Figure 6 Compound 13e induced cell apoptosis. (A) Cell nucleus (upper panel) and morphology (lower panel) of compound 13e treated (48 h) or untreated MGC-803 cells; (B) Compound 13e induced apoptosis of MGC-803 cells. After incubated with compound 13e for 48 h, MGC-803 cells were detected by Annexin V/PI with flow cytometric analysis. The Q3 represents live cells, Q4 represents early/primary apoptotic cells, Q2 represents late/secondary apoptotic cells and Q1 represents cells necrosis. (C) The percentage of apoptosis (early and late apoptosis) cells increased dependently with various concentrations of compound 13e. Date are represented as mean ± SD of three independent experiments.

MGC-803 cells [6] = experiment: DAPI fluorescent staining of cell nucleus; type: cell-based, human; conditions: MGC-803, high dose treated group, 48 h
Experimental: Cells were seeded in 6-welled plate, then treated with different concentration of compounds for 48 h. The treated and untreated cells were washed with PBS buffer. Then fixed with 4% paraformaldehyde for 10 min in dark. After washed with PBS buffer, cells were stained by 2 μg/mL DAPI solution containing 0.1% triton X-100 for 30 min. Discard the solution and wash the cells with PBS buffer. Capture the images with a fluorescence microscope.
as §6

[7] = system: apoptosis related proteins in MGC-803 cells; experiment: Western blotting of apoptosis related proteins; type: cell-based, human; conditions: MGC-803, 1.5-6 μmol/L, 48 h
Experimental: as §5
Figure 7 Compound 13e regulated apoptosis related proteins. (A,B) The expression of cell apoptosis related proteins were detected by western blotting. MGC-803 cells were incubated with various concentrations compound 13e (0 μmol/L, 1.5 μmol/L, 3 μmol/L, 6 μmol/L) for 48 h. Date are represented as mean ± SD of three independent experiments.

[8] = Homo sapiens, HCT-116, exposure for 48 h
[9] = Homo sapiens, MCF7, exposure for 48 h

Compound: COc1cc(/C=C/C(=O)c2ccc(NC(=O)CCCCl)cc2)cc(OC)c1OC [Compound 13e]
- IC50 (MGC-803 cells [1]; Homo sapiens, MGC-803, 48 h): 1.54 µM
- IC50 (MGC-803 cells [1]): 1.52 ± 0.12 µM
- IC50 (HCT-116 cells; [8]): 1.83 ± 0.2 µM
- IC50 (MCF-7 cells; [9]): 2.54 ± 0.18 µM
- Fold Selectivity A (GES-1 cells): 5.4 fold
- IC50 (GES-1 cells): 8.22 µM
- Concentration range of selective inhibitory effect on cancer cells (GES-1 cells; MGC-803 versus GES-1, 48 h): below 2 μmol/L
- Inhibition activity on GES-1 compared with MGC-803 (GES-1 cells; cell viability, 48 h, Figure 4C): lower inhibition activity on GES-1 than gastric cancer cell MGC-803
- Dose from which cell growth is inhibited (MGC-803 cells [2]): ≥ 0.75 µmol/L
- Concentration at which colonies were evidently reduced (MGC-803 cells [3]; MGC-803, 7 days treatment, compared to control): greater than 0.5 μmol/L
- Colony formation of MGC-803 cells (MGC-803 cells [3]; result in words): inhibited the colony formation
- CDK1 protein level [4]: down-regulated
- CyclinB1 protein level [4]: down-regulated
- Rate of apoptosis cells (early and late) (MGC-803 cells [5]): 86.7%
- Cell nucleus morphology (DAPI) (MGC-803 cells [6]): concentrated and fragmented
- Bcl-2 expression [7]: down regulated
- Caspase3/7 [7]: cleaved (activated)
- Caspase8 [7]: cleaved (activated)
- Caspase12 [7]: cleaved (activated)
- DR5 expression [7]: up regulated
- Noxa expression [7]: up regulated
- PARP [7]: cleaved
- XIAP expression [7]: decreased
- c-IAP1 expression [7]: decreased
- t-Bid [7]: increase
- melting point: 170 to 171 °C

Compound: COc1cc(/C=C/C(=O)c2ccc(NC(=O)CCCCCl)cc2)cc(OC)c1OC [Compound 13f]
- IC50 (MGC-803 cells [1]; Homo sapiens, MGC-803, 48 h): 3.01 ± 0.11 µM
- IC50 (HCT-116 cells; [8]): 4.28 ± 0.32 µM
- IC50 (MCF-7 cells; [9]): 4.45 ± 0.11 µM
- melting point: 125 to 126 °C

Compound: C=CC(=O)Nc1ccc(/C=C/C(=O)c2cc(OC)c(OC)c(OC)c2)cc1 [Compound 13g, (E)-N-(4-(3-oxo-3-(3,4,5-trimethoxyphenyl)prop-1-en-1-yl)phenyl) acrylamide]
- IC50 (MGC-803 cells [1]; Homo sapiens, MGC-803, 48 h): 1.83 ± 0.2 µM
- IC50 (MGC-803 cells [1]): 1.52 µM
- IC50 (HCT-116 cells; [8]): 1.12 ± 0.11 µM
- IC50 (MCF-7 cells; [9]): 2.06 ± 0.21 µM
- Fold Selectivity A (GES-1 cells): 5.4 fold
- IC50 (GES-1 cells): 8.22 µM
- melting point: 178 to 179 °C

Compound: O=C(CCCCl)Nc1ccc(C(=O)/C=C/c2ccccc2)cc1 [Compound 13h]
- IC50 (MGC-803 cells [1]; Homo sapiens, MGC-803, 48 h): 22.1 ± 0.75 µM
- IC50 (HCT-116 cells; [8]): 13.1 ± 0.51 µM
- IC50 (MCF-7 cells; [9]): 22.2 ± 0.83 µM
- melting point: 161 to 162 °C

Compound: O=C(CCCCl)Nc1ccc(C(=O)/C=C/c2ccc(F)cc2)cc1 [Compound 13j]
- IC50 (MGC-803 cells [1]; Homo sapiens, MGC-803, 48 h): > 40 µM
- IC50 (HCT-116 cells; [8]): > 40 µM
- IC50 (MCF-7 cells; [9]): > 40 µM
- melting point: 167 to 168 °C

Compound: COc1ccc(/C=C/C(=O)c2ccc(NC(=O)CCCCl)cc2)cc1OC [Compound 13l]
- IC50 (MGC-803 cells [1]; Homo sapiens, MGC-803, 48 h): 16.3 ± 0.65 µM
- IC50 (HCT-116 cells; [8]): > 40 µM
- IC50 (MCF-7 cells; [9]): 10.1 ± 0.73 µM
- melting point: 166 to 167 °C

Compound: (E)-4-chloro-N-(4-(3-oxo-3-(p-tolyl)prop-1-en-1-yl)phenyl)butanamide [Compound 13i]
- IC50 (MGC-803 cells [1]): 16.8 ± 0.82 µM
- IC50 (HCT-116 cells; exposure for 48 h): 13.1 ± 0.61 µM
- IC50 (MCF-7 cells; exposure for 48 h): 17.6 ± 0.51 µM

Compound: (E)-N-(4-(3-(4-bromophenyl)-3-oxoprop-1-en-1-yl) phenyl)-4-chlorobutanamide [Compound 13k]
- IC50 (MGC-803 cells [1]): > 40 µM
- IC50 (HCT-116 cells; exposure for 48 h): > 40 µM
- IC50 (MCF-7 cells; exposure for 48 h): > 40 µM

Compound: (E)-N-(4-(3-oxo-3-(3,4,5-trimethoxyphenyl) prop-1-en-1-yl) phenyl) acetamide [Compound 13a]
- IC50 (MGC-803 cells [1]): 3.81 ± 0.22 µM
- IC50 (MCF-7 cells; exposure for 48 h): 3.56 ± 0.17 µM

Compound: (E)-N-(4-(3-oxo-3-(3,4,5-trimethoxyphenyl) prop-1-en-1-yl)phenyl) pentanamide [Compound 13b]
- IC50 (MGC-803 cells [1]): 4.08 ± 0.24 µM
- IC50 (HCT-116 cells; exposure for 48 h): 6.72 ± 0.28 µM
- IC50 (MCF-7 cells; exposure for 48 h): 3.11 ± 0.34 µM
